Data taken from patent publication US10555954B2, “Hazardous agent injection system” (Antares Pharma, Inc., priority 2009, dated 2020).
Values joined by “and” are separate entries in the source; they are usually repeats but may differ in a detail not shown here. Equal values may be shown once. “Also recorded” adds a separate entry of the source. Read-outs that look alike come from different tables or passages of the source.

How the values were obtained:
[1] = Pharmacokinetics of methotrexate in plasma after subcutaneous injection with autoinjector or needle/syringe; details: for AUC(0-inf) / AUC(0-τ) / Tmax / T½ / AUC: plasma; for AUC(0-t): individual animals; for AUC: AUC(0-τ)
[2] = tested on: rheumatoid arthritis patients; details: cited from earlier work
[3] = tested on: patients with active rheumatoid arthritis; details: cited from earlier work; for patients achieving ACR20: 16 weeks, starting dose 15 mg per week; for time to achieve an ACR20 response: subgroup n=98; for ACR20 responders: subgroup ≥1 year since diagnosis with prior DMARDs or steroids (n=98)
[4] = cited from earlier work
[5] = pediatric patients with juvenile rheumatoid arthritis, cited from earlier work
[6] = tested on: patients with rheumatoid arthritis; details: 15 mg per week, cited from earlier work
[7] = tested on: patients with rheumatoid arthritis; details: after switching from intramuscular to oral; cited from earlier work
[8] = Autoinjector, Female, 12.5 mg SC, animals S5196028/S5195684/S5195757
[9] = Autoinjector, Male, 12.5 mg SC, animals S5196273/S5196559/S5196206
[10] = Syringe, Female, 12.5 mg SC, animals S5196028/S5195684/S5195757
[11] = Syringe, Male, 12.5 mg SC, animals S5196273/S5196559/S5196206

CN(Cc1cnc2nc(N)nc(N)c2n1)c1ccc(C(=O)N[C@@H](CCC(=O)O)C(=O)O)cc1 [Methotrexate, L-(+)-N-[p-[[(2,4-Diamino-6-pteridinyl)methyl]methylamino]-benzoyl]glutamic acid]
difference in exposure / PK parameters between males and females ([1]; 12.5 mg SC, both devices): no marked difference; also recorded: no marked sex-related differences
exposure with autoinjector compared to needle/syringe ([1]; 12.5 mg SC, male and female minipigs): very similar; also recorded: comparable
AUC(0-inf) [1, 8]: 1859 ng·mL·h
AUC(0-τ) [1, 8]: 1857 ng·mL·h
Tmax [1, 8]: 15 min
T½ [1, 8]: 237 min and 196 min
AUC(0-t) ([1]; Autoinjector, Female, Day 8): 2498 ng·h/mL and 1857 ng·h/mL
T½ ([1]; Autoinjector, Male, 12.5 mg SC, Mean): 115 min
Tmax ([1]; Autoinjector, Male, 12.5 mg SC, Median): 15 min
AUC(0-inf) [1, 9]: 1903 ng·mL·h and 1407 ng·mL·h
Tmax [1, 9]: 15 min
T½ [1, 9]: 120 min
AUC(0-t) ([1]; Needle/Syringe, Female, Day 1): 2378 ng·h/mL and 1831 ng·h/mL
Tmax ([1]; Syringe, Female, 12.5 mg SC, Median): 15 min
AUC(0-inf) [1, 10]: 2675 ng·mL·h and 1832 ng·mL·h
Tmax [1, 10]: 15 min
Tmax ([1]; Syringe, Male, 12.5 mg SC, Median): 15 min
T½ ([1]; Syringe, Male, 12.5 mg SC, animal S5196559): 115 min
AUC(0-τ) [1, 11]: 2464 ng·mL·h and 2016 ng·mL·h
Tmax [1, 11]: 15 min and 30 min
time at which maximal plasma concentrations were generally observed ([1]; both devices, first collection time point): 0.25 h
AUC(0-inf) ([1]; female, Gottingen, minipig, sc, 12.5 mg, AUC(0-inf), Autoinjector, 12.5 mg SC, Mean): 2510 ng·h/mL
AUC(0-inf) ([1]; female, Gottingen, minipig, sc, 12.5 mg, AUC(0-inf), Autoinjector, 12.5 mg SC, animals S5196028/S5195684/S5195757): 3170 ng·h/mL
AUC(0-inf) ([1]; female, Gottingen, minipig, sc, 12.5 mg, AUC(0-inf), Syringe, 12.5 mg SC, Mean): 2300 ng·h/mL
AUC(0-inf) ([1]; female, Gottingen, minipig, sc, 12.5 mg, AUC(0-inf), Syringe, 12.5 mg SC, animals S5196028/S5195684/S5195757): 2380 ng·h/mL
AUC ([1]; female, Gottingen, minipig, sc, 12.5 mg, Syringe, 12.5 mg SC, animals S5196028/S5195684/S5195757): 1830 ng·h/mL
AUC(0-inf) ([1]; male, Gottingen, minipig, sc, 12.5 mg, AUC(0-inf), Autoinjector, 12.5 mg SC, Mean): 1490 ng·h/mL
AUC(0-inf) ([1]; male, Gottingen, minipig, sc, 12.5 mg, AUC(0-inf), Autoinjector, 12.5 mg SC, animals S5196273/S5196559/S5196206): 1160 ng·h/mL
AUC(0-inf) ([1]; male, Gottingen, minipig, sc, 12.5 mg, AUC(0-inf), Syringe, 12.5 mg SC, animal S5196559): 2470 ng·h/mL
AUC ([1]; male, Gottingen, minipig, sc, 12.5 mg, Syringe, 12.5 mg SC, Mean): 1940 ng·h/mL
AUC ([1]; male, Gottingen, minipig, sc, 12.5 mg, Syringe, 12.5 mg SC, animals S5196273/S5196559/S5196206): 1320 ng·h/mL
patients judged to have moderate or marked improvement ([2]; 10 mg to 15 mg intramuscular once a week, 78 patients): Eighty-two
patients who deteriorated after switching to oral methotrexate ([2]; improved after switching back to intramuscular): 10 of 48 patients
patients achieving ACR20 ([3]; oral): 77%
time to achieve an ACR20 response ([3]; oral): 6 weeks
ACR20 responders ([3]; oral): 63%
further ACR20 non-responders with positive ACR20 response ([3]; subcutaneous dosage increased from 15 mg to 20 mg): 23%
patients achieving ACR20 ([3]; subcutaneous): 85%
time to achieve an ACR20 response ([3]; subcutaneous): 4 weeks
ACR20 responders ([3]; subcutaneous): 89%
ACR20 non-responders with positive ACR20 response after switch ([3]; switched from 15 mg oral to 15 mg subcutaneous at 16 weeks): 30%
peak serum concentrations and bioavailability, intramuscular versus subcutaneous ([4]; Brooks et al., 12.5 mg to 25 mg per week): similar
fall of total absorption after oral administration, maintenance versus starting dosage ([4]; Hamilton et al., start 7.5 mg per week, maintenance average 17 mg per week, 21 rheumatoid arthritis patients): about 13.5%
average mean serum concentration ([5]; about 1 hour): about 0.59 μM
average mean serum concentration ([5]; about 2 hours): about 0.44 μM
average mean serum concentration ([5]; about 3 hours): about 0.29 μM
average DAS28 ([6]; after switch from oral to intramuscular administration): 5.2
average DAS28 ([6]; before switch from oral to intramuscular administration): 5.6
patients reporting nausea [7]: 48%
